# Measured values published in patent US20260070945A1, “MACROCYCLIC IMMUNOMODULATORS” (Bristol-Myers Squibb Company, priority 2022, published 2026).
# Where a SMILES comes first, the peptide text is derived from it. Bridges are numbered along the chain shown (N, C = ends). [ ]: non-standard residue; d: D form. The star is where a group is joined. X7 = NC[C@H](NC(=O)CNCCNCCN*)C(=O)NCCCCCCCCCCC(=O)O; Phe(4-COOH) = N[C@@H](Cc1ccc(C(=O)O)cc1)C(=O)O; Bip = N[C@@H](Cc1ccc(-c2ccccc2)cc1)C(=O)O; Phe(3-Me) = Cc1cccc(C[C@H](N)C(=O)O)c1; Cha = N[C@@H](CC1CCCCC1)C(=O)O; Carboxymethyl = O=C(O)C*; NMeA = CN[C@@H](C)C(=O)O; Orn = NCCC[C@H](N)C(=O)O; Aun = NCCCCCCCCCCC(=O)O; Dab = NCC[C@H](N)C(=O)O; Dap = NC[C@H](N)C(=O)O
# Biological target: T1, PD-1/PD-L1 interaction (PE-labeled human PD-L1-Ig binding to Jurkat cell line over-expressing human PD-1) (Homo sapiens, UniProt Q15116)
# T1 construct: expressed in transfected cells; host or cells: Jurkat
# Assay: Jurkat-PD-1 Cell Binding High-Content Screening Assay (CBA)
# Conditions: Jurkat-hPD-1 cells, PE-labeled PD-L1-Ig 20 nM final; read-out: Jurkat HPD1 PDL1 IC50
# Experimental: Example 2: Jurkat-PD-1 Cell Binding High-Content Screening Assay (CBA)
# Phycoerythrin (PE) was covalently linked to the Ig epitope tag of human PD-L1-Ig and fluorescently-labeled PD-L1-Ig was used for binding studies with a Jurkat cell line over-expressing human PD-1 (Jurkat-PD-1). Briefly, 8×10^3 Jurkat-hPD-1 cells were seeded into 384 well plates in 20 μl of DMEM supplemented with 10% fetal calf serum. 100 nl of compound was added to cells followed by incubation at 37° C. for 2 hours. Then, 5 μl of PE-labeled PD-L1-Ig (20 nM final), diluted in DMEM supplemented with 10% fetal calf serum. After 1 hour incubation, cells were fixed with […] in dPBS containing 10 μg/ml Hoechst 33342 and then washed 3× in 100 μl dPBS. Data was collected and processed using a Cell Insight NXT High Content Imager and associated software.
# T1 sequence (Q15116 25-288): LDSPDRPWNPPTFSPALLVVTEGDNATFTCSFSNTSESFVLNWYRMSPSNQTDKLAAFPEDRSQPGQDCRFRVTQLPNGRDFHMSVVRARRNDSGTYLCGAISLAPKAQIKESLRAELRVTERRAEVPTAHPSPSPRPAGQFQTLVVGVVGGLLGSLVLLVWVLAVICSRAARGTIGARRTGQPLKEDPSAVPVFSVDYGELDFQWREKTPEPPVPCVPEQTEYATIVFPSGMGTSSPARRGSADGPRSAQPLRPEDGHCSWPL
row,Compound,IC50
1,CC(C)C[C@@H]1NC(=O)[C@H](Cc2c[nH]c3ccccc23)NC(=O)[C@H](CC(=O)O)NC(=O)[C@H](Cc2ccc(C(=O)O)cc2)NC(=O)[C@H](Cc2ccc(OCC(=O)O)cc2)NC(=O)CSC[C@@H](C(=O)NCC(=O)N[C@@H](CCC(=O)O)C(=O)NCC(=O)NCCCCCCCCCCC(=O)O)NC(=O)[C@H](CO)NC(=O)[C@H](C(C)C)NC(=O)[C@H](CC2CCCCC2)NC(=O)[C@H](CCN)NC(=O)[C@@H](CC(C)C)NC(=O)[C@H](C)N(C)C(=O)[C@H](C(C)C)NC(=O)[C@H](Cc2ccc(-c3ccccc3)cc2)NC1=O [Example 1032] ({CH2CO}-Y(Carboxymethyl)[Phe(4-COOH)]DWL[Bip]V[NMeA][dL][Dab][Cha]VSCGEG[Aun]-OH; thioether N-14),15.9 nM
2,CC(C)C[C@@H]1NC(=O)[C@H](Cc2c[nH]c3ccccc23)NC(=O)[C@H](CC(=O)O)NC(=O)[C@H](Cc2ccc(C(=O)O)cc2)NC(=O)[C@H](Cc2ccc(OCC(=O)O)cc2)NC(=O)CSC[C@@H](C(=O)N[C@@H](CCC(=O)O)C(=O)NCC(=O)NCCCCCCCCCCC(=O)O)NC(=O)[C@H](CO)NC(=O)[C@H](C(C)C)NC(=O)[C@H](CC2CCCCC2)NC(=O)[C@H](CCN)NC(=O)[C@@H](CC(C)C)NC(=O)[C@H](C)N(C)C(=O)[C@H](C(C)C)NC(=O)[C@H](Cc2ccc(-c3ccccc3)cc2)NC1=O [Example 1035] ({CH2CO}-Y(Carboxymethyl)[Phe(4-COOH)]DWL[Bip]V[NMeA][dL][Dab][Cha]VSCEG[Aun]-OH; thioether N-14),19.4 nM
3,CC(C)C[C@@H]1NC(=O)[C@H](Cc2c[nH]c3ccccc23)NC(=O)[C@H](CC(=O)O)NC(=O)[C@H](Cc2ccc(C(=O)O)cc2)NC(=O)[C@H](Cc2ccc(OCC(=O)O)cc2)NC(=O)CSC[C@@H](C(=O)NCC(=O)N[C@@H](CCCN)C(=O)NCCCCCCCCCCC(=O)O)NC(=O)[C@H](CO)NC(=O)[C@H](C(C)C)NC(=O)[C@H](CC2CCCCC2)NC(=O)[C@H](CCN)NC(=O)[C@H](CC(C)C)NC(=O)[C@H](C)N(C)C(=O)[C@H](C(C)C)NC(=O)[C@H](Cc2ccc(-c3ccccc3)cc2)NC1=O [Example 1038] ({CH2CO}-Y(Carboxymethyl)[Phe(4-COOH)]DWL[Bip]V[NMeA]L[Dab][Cha]VSCG[Orn][Aun]-OH; thioether N-14),13.2 nM
4,CC(C)C[C@@H]1NC(=O)[C@H](Cc2c[nH]c3ccccc23)NC(=O)[C@H](CC(=O)O)NC(=O)[C@H](Cc2ccc(C(=O)O)cc2)NC(=O)[C@H](Cc2ccc(OCC(=O)O)cc2)NC(=O)CSC[C@@H](C(=O)NCC(=O)N[C@@H](CCCCN)C(=O)NCCCCCCCCCCC(=O)O)NC(=O)[C@H](CO)NC(=O)[C@H](C(C)C)NC(=O)[C@H](CC2CCCCC2)NC(=O)[C@H](CCN)NC(=O)[C@@H](CC(C)C)NC(=O)[C@H](C)N(C)C(=O)[C@H](C(C)C)NC(=O)[C@H](Cc2ccc(-c3ccccc3)cc2)NC1=O [Example 1039] ({CH2CO}-Y(Carboxymethyl)[Phe(4-COOH)]DWL[Bip]V[NMeA][dL][Dab][Cha]VSCGK[Aun]-OH; thioether N-14),12.8 nM
5,CC(C)C[C@@H]1NC(=O)[C@H](Cc2c[nH]c3ccccc23)NC(=O)[C@H](CC(=O)O)NC(=O)[C@H](Cc2ccc(C(=O)O)cc2)NC(=O)[C@H](Cc2ccc(OCC(=O)O)cc2)NC(=O)CSC[C@@H](C(=O)NCC(=O)N[C@@H](CCC(=O)O)C(=O)NCCCCCCCCCCC(=O)O)NC(=O)[C@H](CO)NC(=O)[C@H](C(C)C)NC(=O)[C@H](CC2CCCCC2)NC(=O)[C@H](CCN)NC(=O)[C@@H](CC(C)C)NC(=O)[C@H](C)N(C)C(=O)[C@H](C(C)C)NC(=O)[C@H](Cc2ccc(-c3ccccc3)cc2)NC1=O [Example 1040] ({CH2CO}-Y(Carboxymethyl)[Phe(4-COOH)]DWL[Bip]V[NMeA][dL][Dab][Cha]VSCGE[Aun]-OH; thioether N-14),14 nM
6,CC(C)C[C@@H]1NC(=O)[C@H](Cc2c[nH]c3ccccc23)NC(=O)[C@H](CC(=O)O)NC(=O)[C@H](Cc2ccc(C(=O)O)cc2)NC(=O)[C@H](Cc2ccc(OCC(=O)O)cc2)NC(=O)CSC[C@@H](C(=O)NCC(=O)N[C@@H](CC(=O)O)C(=O)NCCCCCCCCCCC(=O)O)NC(=O)[C@H](CO)NC(=O)[C@H](C(C)C)NC(=O)[C@H](CC2CCCCC2)NC(=O)[C@H](CCN)NC(=O)[C@@H](CC(C)C)NC(=O)[C@H](C)N(C)C(=O)[C@H](C(C)C)NC(=O)[C@H](Cc2ccc(-c3ccccc3)cc2)NC1=O [Example 1041] ({CH2CO}-Y(Carboxymethyl)[Phe(4-COOH)]DWL[Bip]V[NMeA][dL][Dab][Cha]VSCGD[Aun]-OH; thioether N-14),13.8 nM
7,Cc1cccc(C[C@@H]2NC(=O)[C@H](CC(=O)O)NC(=O)[C@H](Cc3ccc(OCC(=O)O)cc3)NC(=O)[C@H](CN)NC(=O)CSC[C@@H](C(=O)NCC(=O)N[C@@H](CC(=O)O)C(=O)NCCCCCCCCCCC(=O)O)NC(=O)[C@H](CO)NC(=O)[C@H](C(C)C)NC(=O)[C@H](CC(C)C)NC(=O)[C@H](CC(N)=O)NC(=O)[C@@H](CC(C)C)NC(=O)[C@H](C)N(C)C(=O)[C@H](C(C)C)NC(=O)[C@H](Cc3ccc(-c4ccccc4)cc3)NC(=O)[C@H](CC(C)C)NC2=O)c1 [Example 1061] ({CH2CO}-[Dap]Y(Carboxymethyl)D[Phe(3-Me)]L[Bip]V[NMeA][dL]NLVSCGD[Aun]-OH; thioether N-14),42.9 nM

# Continued, values first:
row,IC50,Compound
1,20.5 nM,CC(C)C[C@@H]1NC(=O)[C@H](Cc2c[nH]c3ccccc23)NC(=O)[C@H](CC(=O)O)NC(=O)[C@H](Cc2ccc(C(=O)O)cc2)NC(=O)[C@H](Cc2ccc(OCC(=O)O)cc2)NC(=O)CSC[C@@H](C(=O)NCC(=O)N[C@@H](CC(=O)O)C(=O)NCC(=O)NCCCCCCCCCCC(=O)O)NC(=O)[C@H](CO)NC(=O)[C@H](C(C)C)NC(=O)[C@H](CC2CCCCC2)NC(=O)[C@H](CCN)NC(=O)[C@@H](CC(C)C)NC(=O)[C@H](C)N(C)C(=O)[C@H](C(C)C)NC(=O)[C@H](Cc2ccc(-c3ccccc3)cc2)NC1=O [Example 1033] ({CH2CO}-Y(Carboxymethyl)[Phe(4-COOH)]DWL[Bip]V[NMeA][dL][Dab][Cha]VSCGDG[Aun]-OH; thioether N-14)
2,11.5 nM,CC(C)C[C@@H]1NC(=O)[C@H](Cc2c[nH]c3ccccc23)NC(=O)[C@H](CC(=O)O)NC(=O)[C@H](Cc2ccc(C(=O)O)cc2)NC(=O)[C@H](Cc2ccc(OCC(=O)O)cc2)NC(=O)CSC[C@@H](C(=O)NCC(=O)N[C@@H](CN)C(=O)NCCCCCCCCCCC(=O)O)NC(=O)[C@H](CO)NC(=O)[C@H](C(C)C)NC(=O)[C@H](CC2CCCCC2)NC(=O)[C@H](CCN)NC(=O)[C@@H](CC(C)C)NC(=O)[C@H](C)N(C)C(=O)[C@H](C(C)C)NC(=O)[C@H](Cc2ccc(-c3ccccc3)cc2)NC1=O [Example 1036] ({CH2CO}-Y(Carboxymethyl)[Phe(4-COOH)]DWL[Bip]V[NMeA][dL][Dab][Cha]VSCG[Dap][Aun]-OH; thioether N-14)
3,13.6 nM,CC(C)C[C@@H]1NC(=O)[C@H](Cc2c[nH]c3ccccc23)NC(=O)[C@H](CC(=O)O)NC(=O)[C@H](Cc2ccc(C(=O)O)cc2)NC(=O)[C@H](Cc2ccc(OCC(=O)O)cc2)NC(=O)CSC[C@@H](C(=O)NCC(=O)N[C@@H](CCN)C(=O)NCCCCCCCCCCC(=O)O)NC(=O)[C@H](CO)NC(=O)[C@H](C(C)C)NC(=O)[C@H](CC2CCCCC2)NC(=O)[C@H](CCN)NC(=O)[C@H](CC(C)C)NC(=O)[C@H](C)N(C)C(=O)[C@H](C(C)C)NC(=O)[C@H](Cc2ccc(-c3ccccc3)cc2)NC1=O [Example 1037] ({CH2CO}-Y(Carboxymethyl)[Phe(4-COOH)]DWL[Bip]V[NMeA]L[Dab][Cha]VSCG[Dab][Aun]-OH; thioether N-14)
4,18.4 nM,Cc1cccc(C[C@@H]2NC(=O)[C@H](CC(=O)O)NC(=O)[C@H](Cc3ccc(OCC(=O)O)cc3)NC(=O)[C@H](CN)NC(=O)CSC[C@@H](C(=O)NCC(=O)N[C@@H](CN)C(=O)NCC(=O)NCCCCCCCCCCC(=O)O)NC(=O)[C@H](CO)NC(=O)[C@H](C(C)C)NC(=O)[C@H](CC(C)C)NC(=O)[C@H](CC(N)=O)NC(=O)[C@@H](CC(C)C)NC(=O)[C@H](C)N(C)C(=O)[C@H](C(C)C)NC(=O)[C@H](Cc3ccc(-c4ccccc4)cc3)NC(=O)[C@H](CC(C)C)NC2=O)c1 [Example 1052] ({CH2CO}-[Dap]Y(Carboxymethyl)D[Phe(3-Me)]L[Bip]V[NMeA][dL]NLVSCG[Dap]G[Aun]-OH; thioether N-14)
5,47.9 nM,Cc1cccc(C[C@@H]2NC(=O)[C@H](CC(=O)O)NC(=O)[C@H](Cc3ccc(OCC(=O)O)cc3)NC(=O)[C@H](CN)NC(=O)CSC[C@@H](C(=O)NCC(=O)N[C@@H](CCC(=O)O)C(=O)NCCCCCCCCCCC(=O)O)NC(=O)[C@H](CO)NC(=O)[C@H](C(C)C)NC(=O)[C@H](CC(C)C)NC(=O)[C@H](CC(N)=O)NC(=O)[C@@H](CC(C)C)NC(=O)[C@H](C)N(C)C(=O)[C@H](C(C)C)NC(=O)[C@H](Cc3ccc(-c4ccccc4)cc3)NC(=O)[C@H](CC(C)C)NC2=O)c1 [Example 1060] ({CH2CO}-[Dap]Y(Carboxymethyl)D[Phe(3-Me)]L[Bip]V[NMeA][dL]NLVSCGE[Aun]-OH; thioether N-14)
6,26.9 nM,Cc1cccc(C[C@@H]2NC(=O)[C@H](CC(=O)O)NC(=O)[C@H](Cc3ccc(OCC(=O)O)cc3)NC(=O)[C@H](CN)NC(=O)CSC[C@@H](C(=O)NCCNCCNCC(=O)N[C@@H](CN)C(=O)NCCCCCCCCCCC(=O)O)NC(=O)[C@H](CO)NC(=O)[C@H](C(C)C)NC(=O)[C@H](CC(C)C)NC(=O)[C@H](CC(N)=O)NC(=O)[C@@H](CC(C)C)NC(=O)[C@H](C)N(C)C(=O)[C@H](C(C)C)NC(=O)[C@H](Cc3ccc(-c4ccccc4)cc3)NC(=O)[C@H](CC(C)C)NC2=O)c1 [Example 1062] ({CH2CO}-[Dap]Y(Carboxymethyl)D[Phe(3-Me)]L[Bip]V[NMeA][dL]NLVSC-X7; thioether N-14)
